# Test system: GST-BIR3 fusion protein
# Assay: FMAT solution phase assay: competition of GST-BIR3 off beads carrying biotinylated Smac 7-mer peptide
# Assay type: binding
# Conditions: competing GST-BIR3 off beads with immobilized biotinylated Smac 7-mer peptide (AVPIAQK)
# Protocol: In order to measure the ability of the inventive compounds to bind the BIR3 peptide binding pocket, a solution phase assay on the FMAT technology platform is utilized. Biotinylated Smac 7-mer peptide (AVPIAQK, lysine ε-amino group is biotinylated) is immobilized on streptavidin coated beads. GST-BIR3 fusion protein is precipitated with FMAT beads and is detected using fluorescent tagged anti-GST antibodies. […] The IC50 for non-biotinylated Smac is 400 nM.
substance,measurement,value
non-biotinylated Smac: Non-biotinylated Smac peptide; the biotinylated bead-bound form is the Smac 7-mer AVPIAQK,IC50,400 nM
